Results from article PMC9719519, “Non-classical ferroptosis inhibition by a small molecule targeting PHB2” (Nature Communications, 2022).

Legend:
Test in all cases: biochemical
Design in all cases: Eurofins recombinant human kinase profiling, remaining kinase activity as % of control, 10 uM ATP
Conditions in all cases: ATP 10 uM; read-out: %Ctrl@10 μM
[1] = molecular target: PAK6(h) (Homo sapiens, UniProt Q9NQU5)
Procedure, shortened: (§1)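 Activity measured in a commercial panel of 401 recombinant human protein kinases run as a kinase profiling service.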

[2] = molecular target: Hck(h) (Homo sapiens, UniProt P08631)
Procedure, shortened: as §1

[3] = molecular target: GRK1(h) (Homo sapiens, UniProt Q15835)
Procedure, shortened: as §1

[4] = molecular target: ULK3(h) (Homo sapiens, UniProt Q6PHR2)
Procedure, shortened: as §1

[5] = molecular target: MELK(h) (Homo sapiens, UniProt Q14680)
Procedure, shortened: as §1

[6] = molecular target: CDK7/cyclinH/MAT1(h) (Homo sapiens, UniProt P50613)
Procedure, shortened: as §1

[7] = molecular target: T1, PKG1α(h) (Homo sapiens, UniProt Q13976)
T1 construct: gene PRKG1; isoform 1alpha
Procedure, shortened: as §1

[8] = molecular target: CDKL3(h) (Homo sapiens, UniProt Q8IVW4)
Procedure, shortened: as §1

[9] = molecular target: FGFR2(h) (Homo sapiens, UniProt P21802)
Procedure, shortened: as §1

[10] = molecular target: TYK2(h) (Homo sapiens, UniProt P29597)
Procedure, shortened: as §1

[11] = molecular target: NEK11(h) (Homo sapiens, UniProt Q8NG66)
Procedure, shortened: as §1

[12] = molecular target: DAPK1(h) (Homo sapiens, UniProt P53355)
Procedure, shortened: as §1

[13] = molecular target: EGFR(h) (Homo sapiens, UniProt P00533)
Procedure, shortened: as §1

[14] = molecular target: MOK(h) (Homo sapiens, UniProt Q9UQ07)
Procedure, shortened: as §1

[15] = molecular target: NEK7(h) (Homo sapiens, UniProt Q8TDX7)
Procedure, shortened: as §1

[16] = molecular target: WNK1(h) (Homo sapiens, UniProt Q9H4A3)
Procedure, shortened: as §1

[17] = molecular target: T2, ACK1(h) (Homo sapiens, UniProt Q07912)
T2 construct: gene TNK2
Procedure, shortened: as §1

[18] = molecular target: T3, CDK5/p35(h) (Homo sapiens, UniProt Q00535)
T3 construct: p35
Procedure, shortened: as §1

[19] = molecular target: T4, GSK3β(h) (Homo sapiens, UniProt P49841)
T4 construct: gene GSK3B
Procedure, shortened: as §1

[20] = molecular target: T5, DCAMKL3(h) (Homo sapiens, UniProt Q9C098)
T5 construct: gene DCLK3
Procedure, shortened: as §1

[21] = molecular target: T6, cKit(V654A)(h) (Homo sapiens, UniProt P10721, V654A)
T6 construct: gene KIT
Procedure, shortened: as §1

[22] = molecular target: T7, MEKK3(h) (Homo sapiens, UniProt Q99759)
T7 construct: gene MAP3K3
Procedure, shortened: as §1

[23] = molecular target: NEK6(h) (Homo sapiens, UniProt Q9HC98)
Procedure, shortened: as §1

Sequence of NEK11(h) (Q8NG66 whole entry): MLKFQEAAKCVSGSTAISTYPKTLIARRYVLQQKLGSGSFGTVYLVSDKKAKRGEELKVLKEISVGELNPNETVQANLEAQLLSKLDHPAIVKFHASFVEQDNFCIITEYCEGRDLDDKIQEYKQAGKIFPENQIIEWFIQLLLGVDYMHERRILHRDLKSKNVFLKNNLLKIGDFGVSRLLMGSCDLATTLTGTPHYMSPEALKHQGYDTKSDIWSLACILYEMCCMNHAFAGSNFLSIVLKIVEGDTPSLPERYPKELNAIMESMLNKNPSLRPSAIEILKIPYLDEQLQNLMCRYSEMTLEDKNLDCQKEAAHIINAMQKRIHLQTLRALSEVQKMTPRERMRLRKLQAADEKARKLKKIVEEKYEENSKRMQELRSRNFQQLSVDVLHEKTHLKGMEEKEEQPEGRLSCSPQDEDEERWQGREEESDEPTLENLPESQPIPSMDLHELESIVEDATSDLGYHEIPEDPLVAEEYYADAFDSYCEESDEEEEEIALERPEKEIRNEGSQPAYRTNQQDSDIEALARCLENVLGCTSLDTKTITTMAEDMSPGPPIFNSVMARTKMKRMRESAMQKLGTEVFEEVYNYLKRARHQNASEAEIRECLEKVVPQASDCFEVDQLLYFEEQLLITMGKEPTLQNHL
Sequence of DAPK1(h) (P53355 whole entry): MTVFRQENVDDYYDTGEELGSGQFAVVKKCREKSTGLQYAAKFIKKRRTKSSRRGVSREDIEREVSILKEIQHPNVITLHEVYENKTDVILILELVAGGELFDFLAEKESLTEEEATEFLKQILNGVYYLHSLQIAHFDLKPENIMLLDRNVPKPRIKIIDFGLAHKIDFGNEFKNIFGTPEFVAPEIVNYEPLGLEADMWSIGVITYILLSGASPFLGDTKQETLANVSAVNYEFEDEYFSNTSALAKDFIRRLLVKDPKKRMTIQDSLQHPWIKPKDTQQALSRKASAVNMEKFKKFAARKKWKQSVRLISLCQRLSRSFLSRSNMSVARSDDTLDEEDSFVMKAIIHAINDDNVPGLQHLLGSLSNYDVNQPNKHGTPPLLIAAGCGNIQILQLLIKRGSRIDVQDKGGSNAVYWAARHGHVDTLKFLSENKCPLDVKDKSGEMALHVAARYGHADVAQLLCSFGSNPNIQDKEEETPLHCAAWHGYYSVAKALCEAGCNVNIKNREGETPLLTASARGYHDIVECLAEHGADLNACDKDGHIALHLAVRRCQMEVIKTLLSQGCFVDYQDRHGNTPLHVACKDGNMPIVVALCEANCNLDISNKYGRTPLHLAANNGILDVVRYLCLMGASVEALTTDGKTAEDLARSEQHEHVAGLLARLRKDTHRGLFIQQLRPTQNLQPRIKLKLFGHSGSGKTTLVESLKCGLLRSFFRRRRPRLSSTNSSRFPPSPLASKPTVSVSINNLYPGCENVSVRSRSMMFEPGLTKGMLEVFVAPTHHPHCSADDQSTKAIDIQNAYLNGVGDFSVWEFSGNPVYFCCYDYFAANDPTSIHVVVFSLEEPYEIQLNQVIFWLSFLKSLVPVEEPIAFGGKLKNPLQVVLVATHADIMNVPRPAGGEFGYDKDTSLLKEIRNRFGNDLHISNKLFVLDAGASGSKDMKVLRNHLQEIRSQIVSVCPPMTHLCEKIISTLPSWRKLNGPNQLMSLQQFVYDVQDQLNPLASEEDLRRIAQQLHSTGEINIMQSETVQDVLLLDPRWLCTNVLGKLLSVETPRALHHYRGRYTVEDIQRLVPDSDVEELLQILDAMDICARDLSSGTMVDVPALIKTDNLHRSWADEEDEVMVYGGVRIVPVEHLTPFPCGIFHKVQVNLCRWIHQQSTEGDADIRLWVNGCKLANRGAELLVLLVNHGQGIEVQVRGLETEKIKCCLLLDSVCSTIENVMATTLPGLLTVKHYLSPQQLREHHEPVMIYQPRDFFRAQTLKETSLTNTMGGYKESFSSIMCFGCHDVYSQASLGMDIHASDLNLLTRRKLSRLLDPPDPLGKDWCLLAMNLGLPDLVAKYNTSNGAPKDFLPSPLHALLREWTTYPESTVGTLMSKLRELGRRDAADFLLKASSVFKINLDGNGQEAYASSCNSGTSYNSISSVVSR
Sequence of EGFR(h) (P00533 whole entry): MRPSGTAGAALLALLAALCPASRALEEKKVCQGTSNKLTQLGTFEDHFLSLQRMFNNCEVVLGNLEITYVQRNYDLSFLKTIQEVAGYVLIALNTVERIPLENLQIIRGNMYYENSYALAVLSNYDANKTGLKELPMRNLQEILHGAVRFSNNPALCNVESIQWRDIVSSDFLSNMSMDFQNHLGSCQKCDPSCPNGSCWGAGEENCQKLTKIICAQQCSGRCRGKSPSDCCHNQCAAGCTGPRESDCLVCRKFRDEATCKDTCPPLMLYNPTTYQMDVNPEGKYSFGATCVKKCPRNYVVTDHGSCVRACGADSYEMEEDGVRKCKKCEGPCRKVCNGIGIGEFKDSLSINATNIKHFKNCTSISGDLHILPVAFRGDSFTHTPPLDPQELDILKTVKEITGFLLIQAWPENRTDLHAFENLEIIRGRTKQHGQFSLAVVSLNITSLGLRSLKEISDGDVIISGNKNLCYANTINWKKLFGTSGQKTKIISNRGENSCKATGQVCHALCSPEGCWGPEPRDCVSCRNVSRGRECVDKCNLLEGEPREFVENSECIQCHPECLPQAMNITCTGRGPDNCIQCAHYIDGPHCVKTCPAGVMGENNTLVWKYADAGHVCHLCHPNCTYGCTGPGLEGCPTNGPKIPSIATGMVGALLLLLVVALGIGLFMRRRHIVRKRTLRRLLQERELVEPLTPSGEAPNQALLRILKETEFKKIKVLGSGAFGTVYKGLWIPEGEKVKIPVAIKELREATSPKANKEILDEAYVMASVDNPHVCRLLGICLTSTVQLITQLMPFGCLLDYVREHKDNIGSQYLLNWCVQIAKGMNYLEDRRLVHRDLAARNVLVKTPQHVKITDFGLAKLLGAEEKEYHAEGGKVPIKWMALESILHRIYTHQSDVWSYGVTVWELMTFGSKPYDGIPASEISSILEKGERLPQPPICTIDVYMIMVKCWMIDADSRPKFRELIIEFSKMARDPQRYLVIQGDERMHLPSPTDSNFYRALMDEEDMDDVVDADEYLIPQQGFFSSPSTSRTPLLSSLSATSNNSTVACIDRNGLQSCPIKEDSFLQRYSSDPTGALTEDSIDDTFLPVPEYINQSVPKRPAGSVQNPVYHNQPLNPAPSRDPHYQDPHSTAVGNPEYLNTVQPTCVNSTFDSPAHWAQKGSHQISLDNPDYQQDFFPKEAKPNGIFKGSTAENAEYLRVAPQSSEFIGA
T3 sequence (Q00535 whole entry): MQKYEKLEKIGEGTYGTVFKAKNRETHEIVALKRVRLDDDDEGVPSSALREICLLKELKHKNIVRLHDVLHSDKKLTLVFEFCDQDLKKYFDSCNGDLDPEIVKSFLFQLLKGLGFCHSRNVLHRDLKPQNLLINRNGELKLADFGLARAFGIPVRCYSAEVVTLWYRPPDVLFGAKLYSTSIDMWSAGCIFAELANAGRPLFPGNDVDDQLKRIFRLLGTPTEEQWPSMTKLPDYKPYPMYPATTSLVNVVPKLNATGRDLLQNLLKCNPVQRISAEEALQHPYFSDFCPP
T3 sequence (Q15078 whole entry partner): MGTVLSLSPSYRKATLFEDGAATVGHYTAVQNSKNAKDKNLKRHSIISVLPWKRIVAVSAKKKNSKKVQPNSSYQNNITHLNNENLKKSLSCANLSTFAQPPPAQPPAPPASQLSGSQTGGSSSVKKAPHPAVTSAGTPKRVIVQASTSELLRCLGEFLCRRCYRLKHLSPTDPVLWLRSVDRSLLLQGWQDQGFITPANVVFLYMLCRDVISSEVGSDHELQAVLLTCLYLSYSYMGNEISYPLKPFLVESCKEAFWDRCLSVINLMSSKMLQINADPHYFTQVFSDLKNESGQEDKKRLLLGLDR
Sequence of Hck(h) (P08631 whole entry): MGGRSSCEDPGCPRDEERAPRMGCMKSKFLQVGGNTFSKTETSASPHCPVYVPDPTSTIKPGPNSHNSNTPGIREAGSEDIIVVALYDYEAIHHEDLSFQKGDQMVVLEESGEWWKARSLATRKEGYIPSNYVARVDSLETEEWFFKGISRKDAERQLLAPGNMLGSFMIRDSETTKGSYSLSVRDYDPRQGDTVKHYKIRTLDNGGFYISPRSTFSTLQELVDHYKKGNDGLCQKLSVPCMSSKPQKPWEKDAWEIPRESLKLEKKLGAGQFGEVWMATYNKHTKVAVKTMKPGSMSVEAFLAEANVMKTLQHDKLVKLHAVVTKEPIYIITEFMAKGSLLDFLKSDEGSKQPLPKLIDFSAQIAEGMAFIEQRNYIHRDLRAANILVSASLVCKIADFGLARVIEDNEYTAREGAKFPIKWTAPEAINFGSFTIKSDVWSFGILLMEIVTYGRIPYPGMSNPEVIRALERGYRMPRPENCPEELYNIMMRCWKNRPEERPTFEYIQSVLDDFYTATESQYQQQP
T7 sequence (Q99759 whole entry): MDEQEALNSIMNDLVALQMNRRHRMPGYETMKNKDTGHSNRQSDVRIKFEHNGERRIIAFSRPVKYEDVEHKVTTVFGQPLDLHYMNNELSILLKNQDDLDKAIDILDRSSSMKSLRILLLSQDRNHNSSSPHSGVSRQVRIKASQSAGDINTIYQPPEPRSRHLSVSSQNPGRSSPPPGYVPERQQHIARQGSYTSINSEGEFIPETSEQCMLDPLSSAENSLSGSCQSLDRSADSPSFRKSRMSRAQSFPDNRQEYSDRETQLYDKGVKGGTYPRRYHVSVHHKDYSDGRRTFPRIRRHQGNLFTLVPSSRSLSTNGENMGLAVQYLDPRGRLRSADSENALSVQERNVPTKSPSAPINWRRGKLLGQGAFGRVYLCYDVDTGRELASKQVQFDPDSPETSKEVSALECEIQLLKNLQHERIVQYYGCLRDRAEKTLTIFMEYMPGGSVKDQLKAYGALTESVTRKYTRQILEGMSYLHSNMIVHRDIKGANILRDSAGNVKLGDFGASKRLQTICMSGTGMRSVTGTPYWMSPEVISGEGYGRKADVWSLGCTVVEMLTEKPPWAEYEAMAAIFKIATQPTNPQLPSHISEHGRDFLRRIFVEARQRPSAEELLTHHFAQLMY

## C1=C(c2nc(-c3cnn(C4CCNCC4)c3)cn3cc(-c4ccccc4)nc23)CCOC1 [YL-939]
[1]
  remaining activity at 10 µM: 65%
[2]
  remaining activity at 10 µM: 98%
[3]
  remaining activity at 10 µM: 109%
[4]
  remaining activity at 10 µM: 68%
[5]
  remaining activity at 10 µM: 91%
[6]
  remaining activity at 10 µM: 92%
[7]
  remaining activity at 10 µM: 90%
[8]
  remaining activity at 10 µM: 82%
[9]
  remaining activity at 10 µM: 95%
[10]
  remaining activity at 10 µM: 95%
[11]
  remaining activity at 10 µM: 86%
[12]
  remaining activity at 10 µM: 82%
[13]
  remaining activity at 10 µM: 87%
[14]
  remaining activity at 10 µM: 88%
[15]
  remaining activity at 10 µM: 89%
[16]
  remaining activity at 10 µM: 85%
[17]
  remaining activity at 10 µM: 85%
[18]
  remaining activity at 10 µM: 100%
[19]
  remaining activity at 10 µM: 96%
[20]
  remaining activity at 10 µM: 66%
[21]
  remaining activity at 10 µM: 92%
[22]
  remaining activity at 10 µM: 108%
[23]
  remaining activity at 10 µM: 97%
